A short description of the data set: acute toxicity, single oral administration. To be noted: mouse, in vivo. The text has this:
Moreover, the Table contains data for the acute toxicity (LD50 in mg/kg in the case of single oral administration to mice).

The mark [1] stands for this setting: acute toxicity, single oral administration to mice.

Bounds are passed on as bounds.

Broadly, the LD50 is the dose expected to kill half of the subjects tested. Turning to `CCOC(=O)CCc1cc(Cl)ccc1C(=O)CCCNC(C)=O` [Example 2, ethyl 2-(4-acetamidobutyryl)-5-chloro-hydrocinnamate], the LD50 under setting [1] is above 5000 mg/kg.

Molecule `CCCOC(=O)CCc1cc(Cl)ccc1C(=O)CCCNC(C)=O` [Example 3, propyl 2-(4-acetamidobutyryl)-5-chlorohydrocinnamate] gave a 50% lethal dose (LD50) under setting [1] above 5000 mg/kg.

Regarding `CC(=O)NCCCC(=O)c1ccc(Cl)cc1CCC(=O)OC(C)C` [Example 4, isopropyl 2-(4-acetamidobutyryl)-5-chlorohydrocinnamate], the LD50 under setting [1] was above 4000 mg/kg.

In the case of `CCOC(=O)CCc1cc(Cl)ccc1C(=O)CCCNC(=O)CCCNC(C)=O` [Example 8, ethyl 2-[4-(4-acetamidobutyramido)butyryl]-5-chlorohydrocinnamate], the LD50 under setting [1] is above 5000 mg/kg.

On to `CC(=O)NCCCC(=O)c1ccc(Cl)cc1CCC(N)=O` [Example 19, 2-(4-acetamidobutyryl)-5-chlorohydrocinnamide], for which the LD50 (po) is above 4000 mg/kg.

Under setting [1], `CCOC(=O)CC[C@H](NC(=O)CCc1cc(Cl)ccc1C(=O)CCCNC(C)=O)C(=O)OCC` [Example 29, diethyl N-[2-(4-acetamidobutyryl)-5-chlorohydrocinnamoyl]-L-glutamate] had an LD50 above 5000 mg/kg.

For the molecule `CCOC(=O)CNC(=O)CCc1cc(Cl)ccc1C(=O)CCCNC(C)=O` [Example 30, ethyl N-[2-(4-acetamidobutyryl)-5-chlorohydrocinnamoyl]-glycinate], the LD50 under setting [1] was above 5000 mg/kg.

In turn, `CCCCCCCOC(=O)CCc1cc(Cl)ccc1C(=O)CCCNC(C)=O` [H H Cl H H O(CH2)6CH3 CH3 H H Oxo] yielded a 50% lethal dose (LD50) (po) above 5000 mg/kg.

The values are drawn from patent US4883815A, “Hydrocinnamic acid derivatives” (Hoffmann-La Roche Inc., priority 1987, dated 1989).
